Earlier results in patent publication US8715726B2 (Eurofarma Laboratories S.A., priority 2007, dated 2014).

In the case of COc1cccc(C2(O)CCCCC2CN(C)C)c1 (stereo not drawn) [Tramadol, 2-((dimethylamino)methyl)-1-(m-methoxyphenyl)-cyclohexanol], the metabolism (in vivo) is given as “extensively metabolised in the liver”, the “dose excreted in the form of metabolites” value (oral administration) is given as 60% and the “dose excreted in the urine not having been metabolised” value (oral administration) is given as “Approximately 30%”.
